According to patent publication US20240116910A1, “Heterocycles as WIP1 Inhibitors” (PMV Pharmaceuticals, Inc., priority 2022, published 2024):

How the values were obtained:
[1] = target: recombinant His-tag Wip1 full length protein (amino acids #1-605) (Homo sapiens (Human), UniProt O15297); assay: Wip1 full length phosphatase enzyme FDP assay; type: biochemical; details: fluorescein diphosphate (FDP) substrate, RT 2 hours, fluorescence Ex485/Em535
[2] = target: recombinant His-tag Wip1(2-420) protein (amino acids #2-420) (Homo sapiens (Human), UniProt O15297); assay: Wip1(2-420) phosphatase enzyme FDP assay; type: biochemical; details: fluorescein diphosphate (FDP) substrate, RT 2 hours, fluorescence Ex485/Em535; read-out: WIP1 (Truncated 2-420) FDP Assay: IC50
Chain of recombinant His-tag Wip1(2-420) protein (amino acids #2-420) (O15297 2-420): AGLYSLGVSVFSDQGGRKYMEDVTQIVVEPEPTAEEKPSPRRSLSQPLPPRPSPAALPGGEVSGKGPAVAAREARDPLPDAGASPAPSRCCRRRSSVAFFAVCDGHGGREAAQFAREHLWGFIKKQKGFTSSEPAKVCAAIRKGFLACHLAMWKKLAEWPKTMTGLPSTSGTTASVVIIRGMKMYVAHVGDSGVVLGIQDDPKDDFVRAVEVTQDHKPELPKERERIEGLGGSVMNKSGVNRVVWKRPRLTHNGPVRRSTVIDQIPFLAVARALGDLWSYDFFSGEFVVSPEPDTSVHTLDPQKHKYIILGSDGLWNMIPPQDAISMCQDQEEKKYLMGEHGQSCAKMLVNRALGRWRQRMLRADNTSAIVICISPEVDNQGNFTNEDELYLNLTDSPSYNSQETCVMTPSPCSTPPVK

Chain of recombinant His-tag Wip1 full length protein (amino acids #1-605) (O15297 whole entry, the tested form may be a part): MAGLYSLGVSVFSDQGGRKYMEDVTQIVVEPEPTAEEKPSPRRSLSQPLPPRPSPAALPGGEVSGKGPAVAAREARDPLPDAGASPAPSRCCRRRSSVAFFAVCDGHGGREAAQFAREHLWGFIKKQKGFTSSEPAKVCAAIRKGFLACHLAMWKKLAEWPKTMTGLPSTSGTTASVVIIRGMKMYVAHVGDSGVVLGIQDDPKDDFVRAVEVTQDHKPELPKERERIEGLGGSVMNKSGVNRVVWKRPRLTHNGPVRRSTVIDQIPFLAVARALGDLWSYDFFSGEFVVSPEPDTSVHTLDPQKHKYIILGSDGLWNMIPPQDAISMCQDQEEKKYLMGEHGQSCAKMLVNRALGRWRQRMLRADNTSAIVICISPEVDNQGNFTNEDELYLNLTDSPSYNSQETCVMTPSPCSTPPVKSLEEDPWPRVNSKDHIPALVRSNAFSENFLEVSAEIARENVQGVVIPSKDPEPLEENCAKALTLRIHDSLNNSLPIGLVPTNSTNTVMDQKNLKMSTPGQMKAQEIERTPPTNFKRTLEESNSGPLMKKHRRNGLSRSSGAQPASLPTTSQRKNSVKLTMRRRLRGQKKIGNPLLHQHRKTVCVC

| Structure (SMILES) | IC50 [1] [nM] | IC50 [2] [nM] |
| --- | --- | --- |
| C[C@@H](Nc1cc(Cl)cnc1C1CC1)c1ccc(C(=O)N[C@@H](CC2CCCC2)C(=O)NC2CC2)s1 [Compound 71, (2S)-2-({5-[(1R)-1-[(5-chloro-2-cyclopropylpyridin-3-yl)amino]ethyl]thiophen-2-yl}formamido)-3-cyclopentyl-N-cyclopropylpropanamide] | 215 | 127 |
| Cc1ncc(Cl)cc1NC(C)(C)c1ccc(C(=O)N[C@@H](CC2CCCC2)C(=O)NC23CC(C2)C3)s1 [Compound 54, (2S)-N-{bicyclo[1.1.1]pentan-1-yl}-2-[(5-{2-[(5-chloro-2-methylpyridin-3-yl)amino]propan-2-yl}thiophen-2-yl)formamido]-3-cyclopentylpropanamide] | 11 | 8 |
| Cc1ncc(Cl)cc1NC(C)c1ncc(C(=O)N[C@@H](CC2CCCC2)C(=O)NC2CC2)s1 (stereo partly drawn) [Compound 280, (2S)-2-[(2-{1-[(5-chloro-2-methylpyridin-3-yl)amino]ethyl}-1,3-thiazol-5-yl)formamido]-3-cyclopentyl-N-cyclopropylpropanamide] | 70 | 41 |
| Cc1ncc(Cl)cc1N[C@@H](C)c1ccc(C(=O)N[C@@H](CC2CCCC2)C(=O)Nc2ccc(F)cc2)s1 [Compound 18, (2S)-2-({5-[(1S)-1-[(5-chloro-2-methylpyridin-3-yl)amino]ethyl]thiophen-2-yl}formamido)-3-cyclopentyl-N-(4-fluorophenyl)propanamide] | 8 | 7 |
| CN(Cc1ccc(C(=O)N[C@@H](CC2CCCCC2)C(=O)NC2CCC(N(C)C)CC2)s1)c1cncc(Cl)c1 (stereo partly drawn) [Compound 298, 5-[[(5-chloro-3-pyridyl)-methyl-amino]methyl]-N-[(1S)-1-(cyclohexylmethyl)-2-[[4-(dimethylamino)cyclohexyl]amino]-2-oxo-ethyl]thiophene-2-carboxamide] | 11 | 31 |
